Results reported in publication PMC6145453 (ACS infectious diseases, 2018).
Where “and” joins values, the source holds several entries; their conditions need not be identical. Equal entries are not always repeated. Entries after “also recorded” stand apart in the source; their conditions may differ.

Experiments:
[1] = system: A/Puerto Rico/8/1934 (H1N1) virus expressing GFP; assay: microbe, parasite or virus in culture; assay type: cell-based, influenza A virus; conditions: for IC50: Influenza A virus, H1N1, read-out: PRS IC50
[2] = system: A/Vietnam/1203/2004 (H5N1-Halo) GFP virus; assay: microbe, parasite or virus in culture; assay type: cell-based, influenza A virus; conditions: for IC50: Influenza A virus, H5N1, read-out: H5N1 IC50
[3] = system: viral mRNA, vRNA and protein expression, A/WSN/33; assay type: cell-based, influenza A virus
[4] = system: NP (A/WSN/33 infected A549 cells); assay type: cell-based, influenza A virus
[5] = system: A/Puerto Rico/8/1934 (H1N1); assay: microbe, parasite or virus in culture; assay type: cell-based, influenza A virus; conditions: for IC50: Influenza A virus, H1N1, A549, 24 h
[6] = system: viral mRNA, vRNA and protein expression, rY40F-WSN virus; assay type: cell-based, influenza A virus
[7] = system: A/Vietnam/1203/2004 (H5N1); assay: microbe, parasite or virus in culture; assay type: cell-based, influenza A virus; conditions: for IC50: Influenza A virus, H5N1, A549
influenza A/WSN/33 virus [8] = assay type: cell-based
[9] = system: purified recombinant wild-type WSN NP protein; assay type: biochemical, influenza A/WSN/33 virus
[10] = system: NP (A/WSN/33 infected A549 cells); assay type: cell-based, influenza A virus; remark: listed apart in the source
influenza A/WSN/33 virus [11] = assay: microbe, parasite or virus in culture; assay type: cell-based, influenza A virus (H1N1); conditions: MDCK
[12] = system: A/California/04/2009 (H1N1); assay: microbe, parasite or virus in culture; assay type: cell-based, influenza A virus; conditions: for IC50: Influenza A virus, H1N1, A549
[13] = system: A/Brisbane/59/2007-S (oseltamivir sensitive); assay: microbe, parasite or virus in culture; assay type: cell-based; conditions: Influenza A virus, H1N1, A549, 24 h
A/Wyoming/03/2003 (H3N2) = assay: microbe, parasite or virus in culture; assay type: cell-based; conditions: Influenza A virus, H3N2, A549, 24 h
B/Brisbane/60/2008 = assay: microbe, parasite or virus in culture; assay type: cell-based; conditions: Influenza B virus, MDCK, 24 h
[14] = system: A/Panama/2007/1999 (H3N2); assay: microbe, parasite or virus in culture; assay type: cell-based, influenza A virus; conditions: for IC50: Influenza A virus, H3N2, A549
B/Yamagata/16/1988 = assay: microbe, parasite or virus in culture; assay type: cell-based; conditions: Influenza B virus, MDCK
influenza A/WSN/33 virus [15] = assay: microbe, parasite or virus in culture; assay type: cell-based, influenza A virus (H1N1); conditions: for IC50: Influenza A virus, H1N1|WSN, A549, 24 h
in vitro [16] = conditions: human
[17] = system: vesicular stomatitis virus (VSV); assay type: cell-based
in vitro [18] = conditions: dog
PR8-GFP virus = assay type: cell-based, influenza A virus

| Structure (SMILES) | IC50 [1] | IC50 [2] | NP localization [4] | time of appearance of NP aggregates [4] | IC50 [5] | inhibition of transcription and replication of rY40F-WSN virus [6] | IC50 [7] | effect on NP oligomer ladder / low molecular weight band [9] | effect on low molecular weight NP band [9] | effect on NP oligomer size [10] | effect on low molecular weight NP pool [10] | IC50 [12] | IC50 [13] | IC50 (A/Wyoming/03/2003 (H3N2)) | IC50 (B/Brisbane/60/2008) | IC50 [14] | IC50 (B/Yamagata/16/1988) | IC50 (influenza A/WSN/33 virus [15]) | other results |
| --- | --- | --- | --- | --- | --- | --- | --- | --- | --- | --- | --- | --- | --- | --- | --- | --- | --- | --- | --- |
| CC(C)(C)c1ccc(C(=O)Nc2cccc(NC(=O)c3ccc(C(C)(C)C)cc3)c2)cc1 [S119-6, N,N′-(1,3-phenylene)bis(4-(tert-butyl)benzamide)] | > 50 µM | > 50 µM | – | – | – | – | – | – | – | – | – | – | – | – | – | – | – | – | – |
| CC(C)(C)c1ccc(C(=O)Nc2ccc(NC(=O)c3ccc(C(C)(C)C)cc3)cc2)cc1 [S119, N,N′-(1,4-Phenylene)bis(4-(tert-butyl)benzamide)] | > 50 µM | > 50 µM | NP translocation to the nucleus was delayed | not until the 24 h post-infection time point | > 50 µM | completely resistant | > 50 µM | low molecular weight band is completely lost | low molecular weight NP band is lost | shift to smaller oligomers | distinct loss | 27.4 µM | > 50 µM | > 50 µM | > 50 µM | > 50 µM | > 50 µM | 0.02 µM | NP protein levels [3]: moderately reduced; NS1 protein expression [3]: unaffected; mRNA expression from the NP segment [3]: severely reduced; mRNA expression from the NS segment [3]: slightly reduced; mRNA expression from the PB2 segment [3]: reduced to undetectable levels; vRNA from any segment [3]: could not be detected; activity against strain [5]: ineffective; Cytotoxicity (A549 cells; A549 cells, concentrations as high as 500 μM): very little toxicity; activity against strain [7]: ineffective; effect on viral titer when added at 6 h after infection (influenza A/WSN/33 virus [8]): 1 log; virus inhibition when added 4 h after infection (influenza A/WSN/33 virus [8]): significant virus inhibition; virus inhibition when added before infection and up to 2 h after infection (influenza A/WSN/33 virus [8]): maximally inhibit; antiviral activity on screened strain [1]: no detectable antiviral activity; IC50 (influenza A/WSN/33 virus [11]): 0.06 µM; reduction in infectious titer [12]: 77%; activity against strain [14]: ineffective; antiviral activity on screened strain [2]: no detectable antiviral activity; reduction in WSN viral titers (influenza A/WSN/33 virus [15]): 4 log |
| CC(C)(C)c1ccc(C(=O)Nc2ccc(Oc3ccccc3)cc2)cc1 [S119-3, 4-(tert-butyl)-N-(4-phenoxyphenyl)benzamide] | 11.4 µM | 17.4 µM | – | – | – | – | – | – | – | – | – | – | – | – | – | – | – | – | – |
| CC(C)(C)c1ccc(NC(=O)c2ccc(C(C)(C)C)cc2)cc1 [S119-2, 4-(tert-butyl)-N-(4-(tert-butyl)phenyl)benzamide] | 13.9 µM | 44.5 µM | – | – | – | – | – | – | – | – | – | – | – | – | – | – | – | – | – |
| CC(C)(C)c1ccc(C(=O)Nc2ccc(Nc3ccccc3)cc2)cc1 [S119-8, 4-(tert-butyl)-N-(4-(phenylamino)-phenyl)benzamide] | 6.05 µM | 8.42 µM | – | – | 6.05 µM | – | 7.94 µM | – | – | – | – | 5.32 µM | 6.68 µM | 11.5 µM | 15.2 µM | 6.43 µM | 2.08 µM | 1.43 µM | CC50 (in vitro [16]; CC50): > 50 µM; CC50 (in vitro [16]; CC50 (50% cytotoxic concentration)): 66.1 µM; inhibition of VSV [17]: did not inhibit; also recorded: does not inhibit; CC50 (A549 cells; human): 40.7 µM; CC50 (in vitro [18]): > 50 µM; combination index (PR8-GFP virus): 0.79 and 0.57; type of interaction (PR8-GFP virus): synergistic; also recorded: additive to slightly synergistic |
| Cc1onc(-c2ccccc2)c1C(=O)N1CCN(c2ccc([N+](=O)[O-])cc2Cl)CC1 [nucleozin, reference compound] | – | – | NP remains exclusively in the cytoplasm | visible aggregates by 4 h post-infection | – | efficient inhibition | – | oligomer ladder becomes a smear | low molecular weight NP band is lost | shift to smaller oligomers | distinct loss | – | – | – | – | – | – | – | mRNA, vRNA and viral protein expression from PB2, NP and NS segments [3]: complete loss |
